Results published in patent publication US11089783B2, “2-(het)aryl-substituted fused heterocycle derivatives as pesticides” (Bayer Aktiengesellschaft, priority 2017, dated 2021).

Experiments:
Format in all cases: in vivo
Meloidogyne incognita = Meloidogyne incognita test (MELGIN); conditions: 14 days (14 dat); for pest or weed control at 20 ppm: Meloidogyne incognita, 336 h, read-out: efficacy (nematicidal, gall formation)
Description: [table] To produce a suitable active ingredient formulation, 1 part by weight of active ingredient is mixed with the stated amount of solvent and the concentrate is diluted to the desired concentration with water. Vessels are filled with sand, active ingredient solution, an egg/larvae suspension of the southern root-knot nematode (Meloidogyne incognita) and lettuce seeds. The lettuce seeds germinate and the plants develop. The galls develop on the roots. After 14 days, the nematicidal efficacy in % is determined by the formation of galls. 100% means that no galls were found; 0% means that the number of galls on the treated plants corresponds to the untreated control. [table] To produce an appropriate active ingredient formulation, 1 part by weight of active ingredient is mixed with the specified amount of solvent and the concentrate is diluted to the desired concentration with water. Vessels are filled with sand, active ingredient solution, an egg/larvae suspension of the southern root-knot nematode (Meloidogyne incognita) and lettuce seeds. The lettuce seeds germinate and the plants develop. The root-knots develop on the roots. After the desired time, the nematicidal effect is determined from the formation of root-knots in %. 100% means that no root-knots were found; 0% means that the number of root-knots on the treated plants corresponds to that on the untreated control.

Nilaparvata lugens = Nilaparvata lugens spray test (NILALU); conditions: 4 g/ha, 4 dat
Description: (§1) [table] To produce an appropriate active ingredient formulation, 1 part by weight of active ingredient is dissolved with the specified parts by weight of solvent and made up with water containing an emulsifier concentration of 1000 ppm until the desired concentration is attained. To produce further test concentrations, the mixture is diluted with emulsifier-containing water. If addition of ammonium salts or/and penetrants is required, these are each added to the preparation solution in a concentration of 1000 ppm. Rice plants (Oryza sativa) are sprayed with an active ingredient formulation of the desired concentration and then populated with larvae of the brown planthopper (Nilaparvata lugens). After the desired time, the efficacy in % is determined. 100% means that all planthoppers have been killed; 0% means that no planthoppers have been killed.

Phaedon cochleariae = Phaedon cochleariae spray test (PHAECO), Chinese cabbage leaf discs; design: key to repellent effect flag: REP = repellent effect; conditions: for pest or weed control at 100 g/ha: read-out: efficacy
Description: (§2) [table] To produce a suitable active ingredient formulation, 1 part by weight of active ingredient is dissolved with the specified parts by weight of solvent and made up to the desired concentration with water containing an emulsifier concentration of 1000 ppm. To produce further test concentrations, the formulation is diluted with emulsifier-containing water. Discs of Chinese cabbage leaves (Brassica pekinensis) are sprayed with an active ingredient formulation of the desired concentration and, after drying, populated with larvae of the mustard beetle (Phaedon cochleariae). After 7 days, the efficacy in % is determined. 100% means that all the beetle larvae have been killed; 0% means that no beetle larvae have been killed. [table] To produce an appropriate active ingredient formulation, 1 part by weight of active ingredient is dissolved with the stated parts by weight of solvent and made up with water containing an emulsifier concentration of 1000 ppm until the desired concentration is attained. For production of further test concentrations, the mixture is diluted with emulsifier-containing water. Discs of chinese cabbage leaves (Brassica pekinensis) are sprayed with an active ingredient formulation of the desired concentration and, after drying, populated with larvae of the mustard beetle (Phaedon cochleariae). After the desired time, the efficacy in % is determined. 100% means that all beetle larvae have been killed; 0% means that no beetle larvae have been killed.

Aphis gossypii = Aphis gossypii spray test (APHIGO), cotton plants; conditions: 6 dat; for Emax at 0.8 ppm: Aphis gossypii, 144 h, read-out: % efficacy
Description: as §1, with “Cotton” for “Rice”, “(Gossypium hirsutum) severely infested by the cotton aphid (Aphis gossypii)” for “(Oryza sativa)”, “concentration.” for “concentration and then populated with larvae of the brown planthopper (Nilaparvata lugens).”, “kill” for “efficacy”, “aphids” for “planthoppers”

Myzus persicae [1] = test: Myzus persicae spray test (MYZUPE), Chinese cabbage leaf discs; conditions: for pest or weed control at 20 g/ha / pest or weed control at 100 g/ha: Myzus persicae, foliar, 120 h, 5 days (5 dat), read-out: efficacy
Description: as §2, with “pekinensis) infested by all stages of the green peach aphid (Myzus persicae)” for “pekinensis)”, “concentration.” for “concentration and, after drying, populated with larvae of the mustard beetle (Phaedon cochleariae).”, “5” for “7”, “aphids” for “beetle larvae”

Myzus persicae [2] = test: Myzus persicae oral test; conditions: 120 h, after 5 days, read-out: efficacy
Description: [table] To produce a suitable active ingredient formulation, 1 part by weight of active ingredient is dissolved with the stated parts by weight of solvent and made up to the desired concentration with water. 50 μl of the active ingredient preparation are transferred into microtitre plates and made up to a final volume of 200 μl with 150 μl of IPL41 insect medium (33%+15% sugar). Subsequently, the plates are sealed with parafilm, which a mixed population of green peach aphids (Myzus persicae) within a second microtitre plate is able to puncture and imbibe the solution. After 5 days, the efficacy in % is determined. 100% means that all the aphids have been killed; 0% means that no aphids have been killed.

Myzus persicae [3] = test: Myzus persicae spray test (MYZUPE S), bell pepper plants; conditions: 144 h, 0.8 ppm, 6 dat, read-out: % efficacy
Description: [table] To produce an appropriate active ingredient formulation, 1 part by weight of active ingredient is dissolved with the specified parts by weight of solvent and made up with water containing an emulsifier concentration of 1000 ppm until the desired concentration is attained. To produce further test concentrations, the mixture is diluted with emulsifier-containing water. If addition of ammonium salts or/and penetrants is required, these are each added to the preparation solution in a concentration of 1000 ppm. Bell pepper plants (Capsicum annuum) severely infested by the green peach aphid (Myzus persicae) are treated by spraying with the active ingredient formulation in the desired concentration. After the desired time, the kill in % is determined. 100% means that all the animals have been killed; 0% means that no animals have been killed.

Lucilia cuprina = Lucilia cuprina test; conditions: 48 h, L1 larvae, after 2 days, read-out: efficacy (kill)
Description: Solvent: dimethyl sulfoxide To produce a suitable active ingredient formulation, 10 mg of active ingredient are mixed with 0.5 ml of dimethyl sulfoxide, and the concentrate is diluted with water to the desired concentration. About 20 L1 larvae of the Australian sheep blowfly (Lucilia cuprina) are transferred into a test vessel containing minced horsemeat and the active ingredient formulation of the desired concentration. After 2 days, the kill in % is determined. 100% means that all the larvae have been killed; 0% means that no larvae have been killed.

Nezara viridula = Nezara viridula spray test (NEZARA / NEZAVI); conditions: Nezara viridula, 96 h, 4 dat, read-out: % efficacy
Description: as §1, with “Barley” for “Rice”, “(Hordeum vulgare) infected with larvae of the southern green shield bug (Nezara viridula)” for “(Oryza sativa)”, “concentration.” for “concentration and then populated with larvae of the brown planthopper (Nilaparvata lugens).”, “bugs” for “planthoppers”

[4] = Phaedon cochleariae, foliar, 168 h, 100 g/ha, 7 days (7 dat)
[5] = Phaedon cochleariae, foliar, 168 h, PHAECO, 20 g/ha, 7 dat
[6] = Phaedon cochleariae, foliar, 168 h, PHAECO, 20 g/ha, 7 dat, read-out: % efficacy

Row | Structure (SMILES) | pest or weed control at 0.8 ppm (Myzus persicae [2]) | pest or weed control at 100 g/ha (Phaedon cochleariae; [4]) | pest or weed control at 20 g/ha (Myzus persicae [1]) | pest or weed control at 100 g/ha (Myzus persicae [1]) | percent efficacy (larval mortality) at a fixed application rate at 20 g/ha (Phaedon cochleariae; [5]) | Emax at 20 g/ha (Phaedon cochleariae; [6]) | other results
1 | CCS(=O)(=O)c1ccc(C(=O)NC)nc1-c1nc2cc(C(F)(F)C(F)(F)F)nnc2n1C [Ex. I-39 from WO2017/025419, reference compound] | – | – | – | – | – | – | efficacy (nematicidal, gall formation) (Meloidogyne incognita; 20 ppm): 0%; % efficacy (Nilaparvata lugens): 0%; efficacy (Phaedon cochleariae; 100 g/ha, 7 days (7 dat)): 0%; % efficacy (Phaedon cochleariae; PHAECO, 20 g/ha, 7 dat): 0%; % efficacy (Aphis gossypii; 0.8 ppm): 0%; % efficacy (Aphis gossypii; 4 ppm): 55%; % efficacy (Myzus persicae [1]; MYZUPE, 4 g/ha, 5 dat): 0%
2 | CCS(=O)(=O)c1ccc(C(=O)N(C)C)nc1-c1nc2cc(C(F)(F)C(F)(F)F)nnc2n1C [Example I-05] | 100% | 100% | 90% | 90% | – | – | Emax at 0.8 ppm (Myzus persicae [3]): 95%; pest or weed control at 100 ppm (Lucilia cuprina): 100%; Emax at 0.8 ppm (Aphis gossypii; 0.8 ppm): 65%
3 | CNC(=O)c1ccc(S(C)(=O)=O)c(-c2nc3cc(C(F)(F)C(F)(F)F)nnc3n2C)n1 [Example I-06] | 100% | 67% | 70% | 90% | – | – | pest or weed control at 100 ppm (Lucilia cuprina): 95%
4 | Cn1c(-c2nc(C(=O)NC3CC3)ccc2S(C)(=O)=O)nc2cc(C(F)(F)C(F)(F)F)nnc21 [Example I-07] | 90% | 100% | – | – | 100% | – | repellent effect flag (Phaedon cochleariae; PHAECO, 20 g/ha, 7 dat): REP
5 | CCNC(=O)c1ccc(S(C)(=O)=O)c(-c2nc3cc(C(F)(F)C(F)(F)F)nnc3n2C)n1 [Example I-14] | 90% | 100% | – | – | – | 83% | pest or weed control at 100 ppm (Lucilia cuprina): 90%
6 | CCS(=O)(=O)c1ccc(N(C)C(=O)N(C)C)nc1-c1nc2cc(C(F)(F)C(F)(F)F)nnc2n1C [Example I-15] | 100% | 100% | 90% | 100% | – | 83% | pest or weed control at 20 ppm (Meloidogyne incognita): 90%; Emax at 0.8 g/ha (Nezara viridula): 80%; Emax at 4 g/ha (Nezara viridula): 100%
7 | CCS(=O)(=O)c1ccc(C(=O)N(C)C)nc1-c1nc2cc(C(F)(F)F)nnc2n1C [reference compound] | – | 33% | – | – | – | – | Emax at 0.8 ppm (Myzus persicae [3]): 50%; Emax at 0.8 ppm (Aphis gossypii; 0.8 ppm): 0%
8 | CNC(=O)c1ccc(S(C)(=O)=O)c(-c2nc3cc(C(F)(F)F)nnc3n2C)n1 [reference compound] | – | 0% | 0% | 0% | – | – | –
9 | Cn1c(-c2nc(C(=O)NC3CC3)ccc2S(C)(=O)=O)nc2cc(C(F)(F)F)nnc21 [reference compound] | – | 50% | – | – | – | 0% | –
10 | CN(C)C(=O)Nc1ccc(S(C)(=O)=O)c(-c2nc3cc(C(F)(F)F)nnc3n2C)n1 [reference compound] | – | 0% | 0% | 0% | 0% | – | pest or weed control at 20 ppm (Meloidogyne incognita): 0%
11 | CCNC(=O)Nc1ccc(S(=O)(=O)CC)c(-c2nc3cc(C(F)(F)F)nnc3n2C)n1 [reference compound] | – | 50% | – | – | – | 67% | Emax at 4 g/ha (Phaedon cochleariae; Phaedon cochleariae, foliar, 168 h, PHAECO, 4 g/ha, 7 dat, read-out: % efficacy): 0%; Emax at 4 g/ha (Nezara viridula): 0%
12 | CCNC(=O)c1ccc(S(C)(=O)=O)c(-c2nc3cc(C(F)(F)F)nnc3n2C)n1 [reference compound] | – | 0% | – | – | 0% | – | –
13 | CCS(=O)(=O)c1ccc(N(C)C(=O)N(C)C)nc1-c1nc2cc(C(F)(F)F)nnc2n1C [reference compound] | – | 0% | – | – | 0% | – | Emax at 0.8 g/ha (Nezara viridula): 0%; Emax at 4 g/ha (Nezara viridula): 50%
